Assay results published in patent publication US5178662A, “Benzaldehyde acetal compounds, preparation process thereof, and herbicidal compositions containing the same as active ingredients” (Mitsui Toatsu Chemicals, Inc., priority 1990, dated 1993).

tested on: Soybean (Glycine max); test: Upland soil application test, crop injury soybean; type: in vivo; conditions: soil application one day after seeding, 50 g ai/a, wettable powder, fresh weight on 50th day after spray
Method: (§1) Resin-made 1/1000-are pots were filled with the soil of an upland field. After they were fertilized, cotton and soybean were seeded and 3 cm soil covering was applied. In addition, amaranth, common lambs-quarters, barnyardgrass, green foxtail, large crabgrass and johnsongrass were seeded and 1 cm soil covering was applied. One day later, a wettable powder prepared from a predetermined amount of each test compound in a similar manner to the procedures described in Formulation Example 1 was diluted with water and then sprayed evenly at an application rate equal to 10 l per are onto the surface of the soil by means of a pressure-operated sprayer. The weeds and crops were allowed to grow in a green house and influence to them were observed on the 50th day after the spray. The degree of damages of each test plant and the degree of injury to each crop were determined by measuring fresh weight in each group and indicated by % calculated according to the following formula. [formula]

SMILES	Crop injury Soybean (Glycine max)
CCCCCCOC(OCCCCCC)c1ccccc1Oc1nc(OC)cc(OC)n1 [Compound No. 5, 2-(4,6-dimethoxypyrimidin-2-yloxy)benzaldehyde di-n-hexylacetal]	0%

tested on: Foxtail (Setaria viridis); test: Upland soil application test, green foxtail; type: in vivo; conditions: 1200 h, soil application one day after seeding, 50 g ai/a, wettable powder, fresh weight on 50th day after spray, read-out: Herbicidal effects Foxtail (Setaria viridis)
Method: as §1

SMILES	pest or weed control at 5000 g/ha
CCCCCCOC(OCCCCCC)c1ccccc1Oc1nc(OC)cc(OC)n1 [Compound No. 5, 2-(4,6-dimethoxypyrimidin-2-yloxy)benzaldehyde di-n-hexylacetal]	100%

tested on: common lambsquarters; test: Upland foliar application test, common lambsquarters; type: in vivo; conditions: Chenopodium album, 960 h; foliar application at stage of 2-3 leaves, 50 g ai/a, emulsion, 40th day after spray; read-out: Herbicidal effects Common lambquarters
Method: (§2) Resin-made 1/1000-are pots were filled with the soil of an upland field. After they were fertilized, cotton and soybean were seeded and 3 cm soil covering was applied. Five days later, amaranth, common lambsquarters, barnyardgrass, green foxtail, large crabgrass and johnsongrass were seeded and 1 cm soil covering was applied. They were allowed to grow in a green house. When each plant grew to the stage of 2-3 leaves, an emulsion formulated from a predetermined amount of each test compound in a similar manner to the procedures described in Formulation Example 11 was diluted with water and then sprayed at a predetermined application rate by means of a pressure-operated sprayer. The application rate was controlled at 5 l per are. Influence to the crops and weeds were observed on the 40th day after the spray of the herbicides. The results are shown in Table 4 in which the degree of damages of each test plant and the degree of injury to each crop are shown in a similar manner to Test 2.

SMILES	pest or weed control at 5000 g/ha
CCCCCCOC(OCCCCCC)c1ccccc1Oc1nc(OC)cc(OC)n1 [Compound No. 5, 2-(4,6-dimethoxypyrimidin-2-yloxy)benzaldehyde di-n-hexylacetal]	100%

tested on: johnsongrass emerging from rhizome; test: Application test on johnsongrass emerging from rhizome; type: in vivo; conditions: foliar application at stage of 4-5 leaves, application rate of active ingredient 20 (unit not given), emulsion, 50th day after spray
Method: as §1
Resin-made 1/1000-are pots were filled with the soil of an upland field. After they were fertilized, rhizome of johnsongrass were transplanted to the pots and 3 cm soil covering was applied. They were allowed to grow in a green house. When each johnsongrass grew to the stage of 4-5 leaves, an emulsion formulated from a predetermined amount of each test compound in a similar manner to the procedures described in Formulation Example 11 was diluted with water and then sprayed at a predetermined application rate by means of a pressure-operated sprayer. The application rate was controlled at 5 l per are. The effect of each compound against the johnsongrass emerging from its rhizome was observed on the 50th day after the spray of the herbicides. The results are shown in Table 5 in which the herbicidal effect against johnsongrass is shown in a similar manner to Test 2.

SMILES	Herbicidal effect against johnsongrass emerging from rhizome
CCCCCCOC(OCCCCCC)c1ccccc1Oc1nc(OC)cc(OC)n1 [Compound No. 5, 2-(4,6-dimethoxypyrimidin-2-yloxy)benzaldehyde di-n-hexylacetal]	100%

tested on: Crabgrass (Digitaria adscendens); test: Upland soil application test, large crabgrass; type: in vivo; conditions: 1200 h, soil application one day after seeding, 50 g ai/a, wettable powder, fresh weight on 50th day after spray, read-out: Herbicidal effects Crabgrass (Digitaria adscendens)
Method: as §1

SMILES	pest or weed control at 5000 g/ha
CCCCCCOC(OCCCCCC)c1ccccc1Oc1nc(OC)cc(OC)n1 [Compound No. 5, 2-(4,6-dimethoxypyrimidin-2-yloxy)benzaldehyde di-n-hexylacetal]	100%

tested on: Amaranth (Amaranthus viridis); test: Upland foliar application test, amaranth; type: in vivo; conditions: 960 h, foliar application at stage of 2-3 leaves, 50 g ai/a, emulsion, 40th day after spray, read-out: Herbicidal effects Amaranth (Amaranthus viridis)
Method: as §1, §2

SMILES	pest or weed control at 5000 g/ha
CCCCCCOC(OCCCCCC)c1ccccc1Oc1nc(OC)cc(OC)n1 [Compound No. 5, 2-(4,6-dimethoxypyrimidin-2-yloxy)benzaldehyde di-n-hexylacetal]	100%

tested on: Cotton (Gossypium indicum); test: Upland soil application test, crop injury cotton; type: in vivo; conditions: soil application one day after seeding, 50 g ai/a, wettable powder, fresh weight on 50th day after spray
Method: as §1

SMILES	Crop injury Cotton (Gossypium indicum)
CCCCCCOC(OCCCCCC)c1ccccc1Oc1nc(OC)cc(OC)n1 [Compound No. 5, 2-(4,6-dimethoxypyrimidin-2-yloxy)benzaldehyde di-n-hexylacetal]	0%

tested on: ALS (acetolactate syntase) from barnyardgrass seedlings; test: ALS (acetolactate syntase) inhibition test, barnyardgrass enzyme; type: biochemical; conditions: 10,000 ppm (0.5 μg/0.5 ml) of compound; 1 hour at 30° C.; absorbance at 525 nm
Method: (§3) To determine the selectivity in enzyme level between crops and weeds, an ALS inhibition test was conducted using pea as a typical broadleaf crop and barnyardgrass as a representative gramineous weeds.
(§4) After seeds of pea and barnyardgrass were allowed to germinate at 25° C. for 8-14 days in a dark place, partially-purified suspensions (Suspensions A) of acetolactate syntase were separately obtained from the seedlings in accordance with the procedures described in the literature, Plant Physiology, 75, 827-831. In a test tube, 0.5 mg of one of test compounds was weighed, followed by the addition of 0.15 ml of a 20 mM K2 HPO4 solution and 0.25 ml of a reaction substrate medium which consisted of 40 mM of K2 HPO4, 40 mM of sodium pyruvate, 1 mM of TPP, 1 mM of MgCl2 and 20 μM of FAD so that 0.4 ml of a reaction solution (Solution B) was prepared. Added to 0.4 ml of Solution B was 0.1 ml of Suspension A. After the resultant mixture was shaken for 1 hour in a thermostat water bath controlled at 30° C., 50 μl of 6N sulfuric acid were added to terminate the reaction.
(§5) Next, the test tube with the reaction-terminated liquid mixture contained therein was transferred into a thermostat water bath controlled at 60° C. and was heated for 15 minutes. Thereafter, 0.5 ml of a 0.5% creatine solution and 0.5 ml of a 5% alkaline α-naphthol solution were added, and the resultant mixture was maintained at 60° C. for 15 minutes. As a result, the test solution developed a pink-to-red color. After the above operation, the absorbance of the test solution at 525 nm was measured by a spectrophotometer (Absorbance 1 of Test Compound).
(§6) Further, the absorbance (Absorbance 2 of Blank) of a solution obtained by subjecting a portion of Solution B to the above procedures without addition of any test compound and the absorbance (Absorbance 3 of sulfuric acid) of another solution obtained by subjecting another portion of Solution B to the above procedures which using 50 μl of 6N sulfuric acid as a test compound were also measured.

SMILES	Enzymoreaction inhibition rate (%) Barnyardgrass
CCCCCCOC(OCCCCCC)c1ccccc1Oc1nc(OC)cc(OC)n1 [Compound No. 5, 2-(4,6-dimethoxypyrimidin-2-yloxy)benzaldehyde di-n-hexylacetal]	100%

tested on: Barnyardgrass (Echinochloa crusgalli); test: Upland foliar application test, barnyardgrass; type: in vivo; conditions: Echinochloa crus-galli, 960 h; foliar application at stage of 2-3 leaves, 50 g ai/a, emulsion, 40th day after spray; read-out: Herbicidal effects Barnyardgrass (Echinochloa crusgalli)
Method: as §2

SMILES	pest or weed control at 5000 g/ha
CCCCCCOC(OCCCCCC)c1ccccc1Oc1nc(OC)cc(OC)n1 [Compound No. 5, 2-(4,6-dimethoxypyrimidin-2-yloxy)benzaldehyde di-n-hexylacetal]	100%

tested on: ALS (acetolactate syntase) from pea seedlings; test: ALS (acetolactate syntase) inhibition test, pea enzyme; type: biochemical; conditions: 10,000 ppm (0.5 μg/0.5 ml) of compound; 1 hour at 30° C.; absorbance at 525 nm
Method: as §3, §4, §5, §6

SMILES	Enzymoreaction inhibition rate (%) Pea
CCCCCCOC(OCCCCCC)c1ccccc1Oc1nc(OC)cc(OC)n1 [Compound No. 5, 2-(4,6-dimethoxypyrimidin-2-yloxy)benzaldehyde di-n-hexylacetal]	0%

tested on: Johnsongrass; test: Upland foliar application test, johnsongrass; type: in vivo; conditions: Sorghum halepense, 960 h; foliar application at stage of 2-3 leaves, 50 g ai/a, emulsion, 40th day after spray; read-out: Herbicidal effects Johnsongrass
Method: as §2

SMILES	pest or weed control at 5000 g/ha
CCCCCCOC(OCCCCCC)c1ccccc1Oc1nc(OC)cc(OC)n1 [Compound No. 5, 2-(4,6-dimethoxypyrimidin-2-yloxy)benzaldehyde di-n-hexylacetal]	100%

tested on: common lambsquarters; test: Upland soil application test, common lambsquarters; type: in vivo; conditions: Chenopodium album, 1200 h; soil application one day after seeding, 50 g ai/a, wettable powder, fresh weight on 50th day after spray; read-out: Herbicidal effects Common lambquarters
Method: as §1

SMILES	pest or weed control at 5000 g/ha
CCCCCCOC(OCCCCCC)c1ccccc1Oc1nc(OC)cc(OC)n1 [Compound No. 5, 2-(4,6-dimethoxypyrimidin-2-yloxy)benzaldehyde di-n-hexylacetal]	100%

tested on: Soybean (Glycine max); test: Upland foliar application test, crop injury soybean; type: in vivo; conditions: foliar application at stage of 2-3 leaves, 50 g ai/a, emulsion, 40th day after spray
Method: as §2

SMILES	Crop injury Soybean (Glycine max)
CCCCCCOC(OCCCCCC)c1ccccc1Oc1nc(OC)cc(OC)n1 [Compound No. 5, 2-(4,6-dimethoxypyrimidin-2-yloxy)benzaldehyde di-n-hexylacetal]	0%

tested on: Foxtail (Setaria viridis); test: Upland foliar application test, green foxtail; type: in vivo; conditions: 960 h, foliar application at stage of 2-3 leaves, 50 g ai/a, emulsion, 40th day after spray, read-out: Herbicidal effects Foxtail (Setaria viridis)
Method: as §1, §2

SMILES	pest or weed control at 5000 g/ha
CCCCCCOC(OCCCCCC)c1ccccc1Oc1nc(OC)cc(OC)n1 [Compound No. 5, 2-(4,6-dimethoxypyrimidin-2-yloxy)benzaldehyde di-n-hexylacetal]	100%

tested on: Barnyardgrass (Echinochloa crusgalli); test: Upland soil application test, barnyardgrass; type: in vivo; conditions: Echinochloa crus-galli, 1200 h; soil application one day after seeding, 50 g ai/a, wettable powder, fresh weight on 50th day after spray; read-out: Herbicidal effects Barnyardgrass (Echinochloa crusgalli)
Method: as §1

SMILES	pest or weed control at 5000 g/ha
CCCCCCOC(OCCCCCC)c1ccccc1Oc1nc(OC)cc(OC)n1 [Compound No. 5, 2-(4,6-dimethoxypyrimidin-2-yloxy)benzaldehyde di-n-hexylacetal]	100%

tested on: Crabgrass (Digitaria adscendens); test: Upland foliar application test, large crabgrass; type: in vivo; conditions: 960 h, foliar application at stage of 2-3 leaves, 50 g ai/a, emulsion, 40th day after spray, read-out: Herbicidal effects Crabgrass (Digitaria adscendens)
Method: as §1, §2

SMILES	pest or weed control at 5000 g/ha
CCCCCCOC(OCCCCCC)c1ccccc1Oc1nc(OC)cc(OC)n1 [Compound No. 5, 2-(4,6-dimethoxypyrimidin-2-yloxy)benzaldehyde di-n-hexylacetal]	100%

tested on: Johnsongrass; test: Upland soil application test, johnsongrass; type: in vivo; conditions: Sorghum halepense, 1200 h; soil application one day after seeding, 50 g ai/a, wettable powder, fresh weight on 50th day after spray; read-out: Herbicidal effects Johnsongrass
Method: as §1

SMILES	pest or weed control at 5000 g/ha
CCCCCCOC(OCCCCCC)c1ccccc1Oc1nc(OC)cc(OC)n1 [Compound No. 5, 2-(4,6-dimethoxypyrimidin-2-yloxy)benzaldehyde di-n-hexylacetal]	100%

tested on: Cotton (Gossypium indicum); test: Upland foliar application test, crop injury cotton; type: in vivo; conditions: foliar application at stage of 2-3 leaves, 50 g ai/a, emulsion, 40th day after spray
Method: as §1, §2

SMILES	Crop injury Cotton (Gossypium indicum)
CCCCCCOC(OCCCCCC)c1ccccc1Oc1nc(OC)cc(OC)n1 [Compound No. 5, 2-(4,6-dimethoxypyrimidin-2-yloxy)benzaldehyde di-n-hexylacetal]	0%

tested on: Amaranth (Amaranthus viridis); test: Upland soil application test, amaranth; type: in vivo; conditions: 1200 h, soil application one day after seeding, 50 g ai/a, wettable powder, fresh weight on 50th day after spray, read-out: Herbicidal effects Amaranth (Amaranthus viridis)
Method: as §1

SMILES	pest or weed control at 5000 g/ha
CCCCCCOC(OCCCCCC)c1ccccc1Oc1nc(OC)cc(OC)n1 [Compound No. 5, 2-(4,6-dimethoxypyrimidin-2-yloxy)benzaldehyde di-n-hexylacetal]	100%
